How the values were obtained:
[1] = Glycoprotein content of sputum aqueous and gel phases by PAS staining; set-up: species or system human; conditions: 10 or 30 μM Trx with reducing system, 20 min (FIG. 5)
Experimental: Extraction of soluble glycoproteins from sputum was performed according to methodology outlined by Davies et al. (Davies and Carlstedt, Methods Mol Biol 125:3-13, 2000). 275 μl of CF sputum was treated for 20 minutes at 37° C. with 25 μl of H2O alone or H2O containing Trx (10 or 30 μM)+NADPH (2 mM) and TR (0.1 μM). After treatment, 100 μl of H2O containing 1 mM disopropylflurophosphate and 10 μg ml aprotinin, was added to each sample, followed by 15 minute centrifugation at 22,000 g at 4° C. The resulting supernatant (aqueous phase) of each sample was transferred to a new microcentrifuge tube and stored at −20° C. […]
The glycoprotein content of aqueous and gel phase samples were evaluated by staining with periodic acid Schiff reagent (PAS) according to methodology outlined by Thornton et al. (Thornton et al., Methods Mol Biol 125:77-85, 2000). […]
Disulfide bonds on mucin glycoprotein polymers are potential targets for reduction by Trx. […] After treatment, the resulting soluble and insoluble phases of each sample were separated and analyzed for glycoprotein content by periodic acid/Schiff reagent (PAS) staining Specifically, fractions were loaded and electrophoresed in a 1% agarose (w/v) gel, transferred to PVDF membrane, and stained with periodic acid/Schiff reagent as described in materials and methods. […]

DNA in CF sputum = assay: Total DNA content of sputum gel and liquid phases by Hoechst assay; set-up: species or system human; conditions: Trx (30 μM) + reducing system, 20 min, mean ± S.D., n=5 (FIG. 6)
Experimental: 275 μl of CF sputum was incubated with no treatment, 25 μl of H2O, or 25 μl of H2O containing Trx (30 μM)+TR (0.1 μM) and NADPH (2 mM). After 20 minute incubation at 37° C., 100 μl of H2O was added to each sample, followed by centrifugation (22,000×g) for 10 minutes. Resulting gel and liquid phases were separated and incubated with an equal volume of digestion solution consisting of 100 mM Tris Cl, 5 mM EDTA, 200 mM NaCl, 0.5% Tween 20, and 1 mg/ml proteinase K for 4 hours at 50° C. DNA was purified from liquid and gel phases by phenol/chloroform extraction and resuspended in 100 μl of TE buffer, pH 8.0. DNA concentrations were determined by Hoechst assay (Labarca and Paigen, Anal Biochem 102:344-352, 1980) using an F-2000 fluorometer (Hitachi, Schaumburg, Ill.) with an excitation wavelength of […] and an emission wavelength of 555 nm. Salmon testis DNA, dissolved in TE buffer, was used to establish the standard curve.
The presence of high amounts of extracellular DNA in CF airway secretions contributes to the excessive viscoelasticity of CF sputum. To evaluate what effect Trx has on the solubility of DNA in sputum, sputum samples (275 μl) were incubated with either no additions, diluent (H2O), or Trx (30 μM)+reducing system for 20 minutes, and then separated into gel (insoluble) and liquid (soluble) phases. […]

Trx: Lyophilized recombinant E. coli Trx from Promega; protein disulfide reductase, used with its reducing system (TR + NADPH)
amount of PAS-reactive glycoproteins in soluble and gel phases versus diluent [1]: greater amounts of PAS-reactive glycoproteins | electrophoretic mobility of glycoforms versus diluent-treated samples [1]: greater electrophoretic mobility | DNA content of gel (insoluble) phase (DNA in CF sputum): 0.55 ± 0.31 mg | DNA content of liquid (soluble) phase (DNA in CF sputum): 0.57 ± 0.37 mg
